Laboratory results as given in patent US8859557B2, “Substituted oxindole derivatives and their use as vasopressin receptor ligands” (Abbott GmbH & Co. KG, priority 2006, dated 2014).
pKi: −log10 of the molar value.

Columns and labels:
[1] = target: T1, recombinant human oxytocin receptors (Homo sapiens, UniProt P30559); experiment: Oxytocin receptor binding assay; conditions: selectivity for V1b over oxytocin receptor, quotient of Ki values
T1 construct: expressed in transfected cells; host or cells: HEK-293, transient expression; lysed and homogenized cells
T1 sequence (P30559 1-389): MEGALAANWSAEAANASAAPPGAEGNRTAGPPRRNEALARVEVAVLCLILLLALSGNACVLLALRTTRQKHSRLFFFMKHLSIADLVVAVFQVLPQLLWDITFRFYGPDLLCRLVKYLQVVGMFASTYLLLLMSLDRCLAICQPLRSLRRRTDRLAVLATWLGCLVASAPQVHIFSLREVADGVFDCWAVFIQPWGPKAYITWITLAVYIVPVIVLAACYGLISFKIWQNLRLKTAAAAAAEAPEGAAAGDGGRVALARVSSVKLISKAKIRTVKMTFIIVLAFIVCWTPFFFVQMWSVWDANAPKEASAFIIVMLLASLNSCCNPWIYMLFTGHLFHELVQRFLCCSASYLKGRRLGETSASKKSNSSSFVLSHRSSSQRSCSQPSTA
Procedure: Oxytocin Receptor Binding Assay
Confluent HEK-293 cells with transiently expressing recombinant human oxytocin receptors were centrifuged at 750×g and at room temperature for 5 minutes. The residue was taken up in ice-cold lysis buffer (50 mM Tris-HCl, 10% glycerol, pH 7.4 and Roche Complete Protease Inhibitor) and subjected to an osmotic shock at 4° C. for 20 minutes. The lyzed cells were then centrifuged at 750×g and at 4° C. for 20 minutes, the residue was taken up in incubation buffer, and aliquots of 10^7 cells/ml were prepared. The aliquots were frozen at −80° C. until used.
On the day of the experiment, the cells were thawed, diluted with incubation buffer and homogenized using a Multipette Combitip (Eppendorf, Hamburg). […] The nonspecific binding was determined with 10^−6 M oxytocin (Bachem AG, H2510). Determinations in triplicate were set up. Bound and free radioligand were separated by filtration under vacuum with Whatman GF/B glass fibre filters using a Skatron cell harvester 7000. The bound radioactivity was determined by liquid scintillation measurement in a Tricarb beta counter, model 2000 or 2200CA (Packard).

[2] = target: T2, human vasopressin V1b receptor (Homo sapiens, UniProt P47901); experiment: Vasopressin V1b receptor binding assay; conditions: displacement of 3H-AVP, membranes of CHO-K1 cells with human V1b receptor
T2 construct: expressed in transfected cells; host or cells: CHO-K1 (cell line hV1b-3H2_CHO), membrane preparation
T2 sequence (P47901 1-424): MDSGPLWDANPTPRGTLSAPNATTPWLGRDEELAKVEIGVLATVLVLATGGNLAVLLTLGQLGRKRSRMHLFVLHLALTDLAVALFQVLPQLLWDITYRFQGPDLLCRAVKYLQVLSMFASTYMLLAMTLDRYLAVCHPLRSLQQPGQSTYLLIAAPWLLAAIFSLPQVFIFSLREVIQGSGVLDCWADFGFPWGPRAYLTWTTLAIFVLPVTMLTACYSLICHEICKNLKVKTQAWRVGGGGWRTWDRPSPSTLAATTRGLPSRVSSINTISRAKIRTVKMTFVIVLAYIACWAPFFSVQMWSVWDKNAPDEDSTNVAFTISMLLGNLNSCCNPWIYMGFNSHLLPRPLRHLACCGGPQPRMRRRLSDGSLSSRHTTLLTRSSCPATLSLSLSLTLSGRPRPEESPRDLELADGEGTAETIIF
Procedure: Methods for Determining the Biological Activity Vasopressin V1b Receptor Binding Assay: Substances:
This series of DMSO predilutions was diluted 1:10 with assay buffer. The substance concentration was again diluted 1:5 in the assay mixture (2% DMSO in the mixture).
All determinations were carried out as triplicate determinations.

[3] = Determination of the microsomal half-life / microsomal clearance (human); assay type: in vitro ADME; conditions: pH 7.4; human liver microsomes, 0.5 μM test substance, 0.25 mg microsomal protein/ml; read-out: Human Mikrosomal Clearance
Procedure: The metabolic stability of a compound can be determined, for example, by incubating a solution of this compound with liver microsomes from particular species (for example rat, dog or human) and determining the half-life of the compound under these conditions (RS Obach, Curr Opin Drug Discov Devel. 2001, 4, 36-44). It is possible to conclude from an observed larger half-life that the metabolic stability of the compound is improved. The stability in the presence of human liver microsomes is of particular interest since it makes it possible to predict the metabolic degradation of the compound in the human liver. Compounds with increased metabolic stability (determined in the liver microsome test) are therefore probably also degraded more slowly in the liver. The slower metabolic degradation in the liver can lead to higher and/or longer-lasting concentrations (effective levels) of the compound in the body, so that the elimination half-life of the compounds according to the invention is increased. Increased and/or longer-lasting effective levels may lead to a better efficacy of the compound in the treatment or prophylaxis of various vasopressin-dependent diseases. An improved metabolic stability may additionally lead to an increased bioavailability after oral administration, because the compound is subjected, after being absorbed in the intestine, to less metabolic degradation in the liver (so-called first pass effect). An increased oral bioavailability may, because the concentration (effective level) of the compound is increased, lead to a better efficacy of the compound after oral administration.
Determination of the Microsomal Half-Life:
The metabolic stability of the compounds of the invention was determined in the following assay.
The test substances are incubated in a concentration of 0.5 μM as follows:
0.5 μM test substance is preincubated together with liver microsomes of various species (rat, human or other species) (0.25 mg of microsomal protein/ml) in 0.05M potassium phosphate buffer pH 7.4 in microtitre plates at 37° C. for 5 min. The reaction is started by adding NADPH (1 mg/ml). 50 μl aliquots are taken after 0, 5, 10, 15, 20 and 30 min, and the reaction is stopped immediately with the same volume of acetonitrile and cooled down. The samples are frozen until analyzed. Using MSMS, the remaining concentration of undegraded test substance is determined. From the […] of the test substance signal/time unit curve, the half-life (T½) is determined, where the half-life of the test substance can be calculated, assuming first order kinetics, from the decrease in the concentration of the compound with time. The microsomal clearance (mCl) is calculated as mCl=In2/T½/(content of microsomal protein in mg/ml)×1000 [ml/min/mg] (modified according to the literature references: Di, The Society for Biomoleculaur Screening, 2003, 453-462; Obach, DMD, 1999 vol 27. N 11, 1350-1359).

[4] = target: human vasopressin V1a receptor (Homo sapiens, UniProt P37288); experiment: Vasopressin V1a receptor binding assay; conditions: selectivity for V1b over V1a, quotient of Ki values
Sequence of human vasopressin V1a receptor (P37288 whole entry): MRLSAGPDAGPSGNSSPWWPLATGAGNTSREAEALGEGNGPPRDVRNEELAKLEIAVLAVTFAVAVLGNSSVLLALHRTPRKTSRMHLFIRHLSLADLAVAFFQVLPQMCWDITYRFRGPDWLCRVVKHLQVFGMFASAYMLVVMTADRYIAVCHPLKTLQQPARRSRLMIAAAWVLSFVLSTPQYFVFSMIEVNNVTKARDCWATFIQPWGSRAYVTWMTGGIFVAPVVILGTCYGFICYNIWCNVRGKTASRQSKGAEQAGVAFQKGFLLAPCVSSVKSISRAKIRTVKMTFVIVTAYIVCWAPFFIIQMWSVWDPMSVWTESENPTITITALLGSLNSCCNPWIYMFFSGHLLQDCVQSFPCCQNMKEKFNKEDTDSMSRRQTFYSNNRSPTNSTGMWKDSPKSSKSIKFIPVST

Ki(h-OT)/Ki(h-V1b) [1] | pKi [2] | microsomal CLint at 0.5 μM [3] | Ki(h-V1a)/Ki(h-V1b) [4] | SMILES
++ (>25-50) | > 8.00 | 60 to 120 µL/min/mg | +++ (>100) | CCOc1ncccc1C1(NC(=O)N2CCC(N3CCNCC3)CC2)C(=O)N(S(=O)(=O)c2ccc(OC)cc2OC)c2ccc(C#N)cc21 (racemic) [Example 55, N-[5-Cyano-1-[(2,4-dimethoxyphenyl)sulphonyl]-3-(2-ethoxypyridin-3-yl)-2-oxo-2,3-dihydro-1H-indol-3-yl]-4-piperazin-1-ylpiperidine-1-carboxamide]
+++ (>50) | > 8.00 | < 60 µL/min/mg | +++ (>100) | CCOc1ncccc1C1(NC(=O)N2CCN(C3CCN(CC)CC3)CC2)C(=O)N(S(=O)(=O)c2ccc(OC)cc2OC)c2ccc(C#N)cc21.O=C(O)C(F)(F)F (single isomer, unassigned) [Example 7B, (−)-N-[5-Cyano-1-[(2,4-dimethoxyphenyl)sulphonyl]-3-(2-ethoxypyridin-3-yl)-2-oxo-2,3-dihydro-1H-indol-3-yl]-4-(1-ethylpiperidin-4-yl)piperazine-1-carboxamide trifluoroacetate]
+++ (>50) | > 8.00 | < 60 µL/min/mg | +++ (>100) | CCOc1ncccc1C1(NC(=O)N2CCC(N3CCN(C)CC3)CC2)C(=O)N(S(=O)(=O)c2ccc(OC)cc2OC)c2ccc(C#N)cc21 (single isomer, unassigned) [Example 31B, (−)-N-[5-Cyano-1-[(2,4-dimethoxyphenyl)sulphonyl]-3-(2-ethoxypyridin-3-yl)-2-oxo-2,3-dihydro-1H-indol-3-yl]-4-(4-methylpiperazin-1-yl)piperidine-1-carboxamide]

Second part, the compound before the results:

SMILES | Ki(h-OT)/Ki(h-V1b) [1] | pKi [2] | microsomal CLint at 0.5 μM [3] | Ki(h-V1a)/Ki(h-V1b) [4]
CCOc1ncccc1C1(NC(=O)N2CCC(C3CCNCC3)CC2)C(=O)N(S(=O)(=O)c2ccc(OC)cc2OC)c2ccc(C#N)cc21.O=C(O)C(F)(F)F.O=C(O)C(F)(F)F (racemic) [Example 85, N-[5-Cyano-1-[(2,4-dimethoxyphenyl)sulphonyl]-3-(2-ethoxypyridin-3-yl)-2-oxo-2,3-dihydro-1H-indol-3-yl]-4,4′-bipiperidine-1-carboxamide bis(trifluoroacetate)] | ++ (>25-50) | > 8.00 | 60 to 120 µL/min/mg | +++ (>100)
CCOc1ncccc1C1(NC(=O)N2CCC(N3CCN(CC)CC3)CC2)C(=O)N(S(=O)(=O)c2ccc(OC)cc2OC)c2ccc(C#N)cc21 (single isomer, unassigned) [Example 37B, (−)-N-[5-Cyano-1-[(2,4-dimethoxyphenyl)sulphonyl]-3-(2-ethoxypyridin-3-yl)-2-oxo-2,3-dihydro-1H-indol-3-yl]-4-(4-ethylpiperazin-1-yl)piperidine-1-carboxamide] | +++ (>50) | > 8.00 | < 60 µL/min/mg | +++ (>100)
CCOc1ncccc1C1(NC(=O)N2CCC(N3CCN(CC)CC3)CC2)C(=O)N(S(=O)(=O)c2ccccc2)c2ccc(C#N)cc21 (single isomer, unassigned) [Example 40B, (−)-N-[5-Cyano-3-(2-ethoxypyridin-3-yl)-2-oxo-1-(phenylsulphonyl)-2,3-dihydro-1H-indol-3-yl]-4-(4-ethylpiperazin-1-yl)piperidin-1-carboxamide] | +++ (>50) | > 8.00 | 60 to 120 µL/min/mg | + (15-50)
CCOc1ncccc1[C@]1(NC(=O)N2CCN(C3CCN(C)CC3)CC2)C(=O)N(S(=O)(=O)c2ccc(OC)cc2OC)c2ccc(C#N)cc21 [Example 1B, (−)-N-[5-Cyano-1-[(2,4-dimethoxyphenyl)sulphonyl]-3-(2-ethoxypyridin-3-yl)-2-oxo-2,3-dihydro-1H-indol-3-yl]-4-(1-methylpiperidin-4-yl)piperazine-1-carboxamide] | +++ (>50) | > 8.00 | < 60 µL/min/mg | +++ (>100)
